The test system of experiment [1] is isolated rat heart. The experiment is described as follows: Cardioprotection and reperfusion-induced arrhythmias in regional ischemia-reperfusion of isolated rat heart. Conditions: Heart (ex vivo). As to the method: (§1) All experiments were conformed to rules of the Guide for the care and use of laboratory animals published by the U.S. National Institutes of Health (NIH publication No 85-23, revised 1985). Adult male Wistar rats (225-250 g) were anaesthetized with sodium pentobarbitone (0.1 ml/100 g body weight) and then heparinised (500 Ul intra-peritoneally). Hearts were rapidly excised, placed in ice-cold oxygenated KH buffer solution, cleaned and then mounted on a modified Langendorff heart perfusion apparatus.
Hearts were cannulated via the aorta and retrogradely perfused at a constant perfusion pressure (90 mm Hg at 37° C.) with modified KH buffer. […]
A saline-filled latex balloon was inserted into the left ventricle by way of the AV valve and connected via a polyethylene cannula to a pressure transducer for determination of Left Ventricular Pressure (LVP) and Left Ventricular End Diastolic Pressure (LVEDP). […] The LVP, LVEDP, and ECG were recorded on a Nihon-Kohden polygraph (RM 600); heart rate (HR) was calculated from the electrogram. Coronary flow (CF) was measured by time collection of coronary effluent at various times during the experiment.
Hearts were perfused for a 20 min control period with KH buffer, for stabilization. […] Left ventricular pressure and epicardial ECG were continuously monitored before and during ischemia and reperfusion. […]

In experiment [2] the test system is isolated rat heart. The experiment is described as follows: Cardioprotection in electrolysis-induced ROS on isolated rat heart. Particulars: Heart (ex vivo). As to the method:
as §1
Hearts were cannulated via the aorta and retrogradely perfused at a constant perfusion pressure (90 mm Hg at 37° C.) with modified KH buffer. This solution was continuously gassed with a mixture of 95% O2 and 5% CO2 to maintain a pH of 7.4 at 37° C. […]
A saline-filled latex balloon was inserted into the left ventricle by way of the AV valve and connected via a polyethylene cannula to a pressure transducer for determination of Left Ventricular Pressure (LVP) and Left Ventricular End Diastolic Pressure (LVEDP). […] The LVP, LVEDP, and ECG were recorded on a Nihon-Kohden polygraph (RM 600); heart rate (HR) was calculated from the electrogram. Coronary flow (CF) was measured by time collection of coronary effluent at various times during the experiment. […]
The cardiodynamic variables were monitored during all the experimental period.

Experiment [3] can be described thus: In vitro antioxidant capacity, inhibition of DPD oxidation by electrolyzed KH buffer. An excerpt:
Oxidation rate of N,N-diethyl-p-phenylenediamine (DPD) by a prooxidant system was used as a general reporter of the amount of ROS generated by that system (Anonymous, 1985; Chahine et al., 1991). Antioxidant capacity of preparations of TRIAD (or of its components) was defined as the extent (%) to which they inhibited the oxidation of DPD by prooxidants. To estimate the antioxidant capacity of TRIAD preparations in the conditions encountered during perfusion of hearts with electrolyzed buffer, 0.6 ml of modified KH not containing (control situation corresponding to 0% inhibition) or containing various concentrations of TRIAD, TRIAD (S2) or their components was subjected to 1-min electrolysis at 10 mA and then mixed with 0.3 ml of the non-electrolyzed counterpart of the solution to which 95 mM DPD was added. Determination of the amount of oxidized DPD was immediately done by reading absorbencies a 515 nm.

On to `CC(=O)C(=O)[O-].[Na+]` [Pyruvate, sodium pyruvate], for which the “Effect of fatty acids and vitamin E on action of pyruvate, the component that mostly contributed to antioxidant action” value is listed as “(Pyruvate, ↓)” in the experiment with isolated rat heart [1]; “(Pyruvate, ↑)” with isolated rat heart [2]; “(Pyruvate, ↑)” in experiment [3] (DPD (in vitro), electrolysis). Besides, the “Antioxidant capacity (ROS scavenging) in vitro, comparison” value in experiment [3] (electrolysis pro-oxidant system, DPD method, same concentrations) is recorded as “only a slightly lower ROS scavenging capacity”.

For the origin of these results see patent publication US20020123525A1, “Cardioprotective composition and uses thereof” (GESTILAB INC., priority 1999, published 2002).
